Assay: Resting energy expenditure after oral ingestion of PX, crossover, two participants
Type: in vivo, human
Procedure: Upon determination of baseline resting energy expenditure, two participants were assigned in a randomized, double-blind, placebo-controlled, crossover fashion to ingest a non-energetic placebo (maltodextrin), 100 mg paraxanthine (PX), 200 mg PX or 300 mg PX. All supplements were orally ingested with 8 fluid ounces of cold tap water. The order of administration for all interventions was randomized using a random allocation software to ensure randomization and to avoid order effects. After ingestion, participants completed all assessments in an identical fashion 30, 60, 90, 120, and 180 minutes after ingestion of their assigned supplement. All study visits took place between 0600-1000 hours. At least 72 hours of rest took place between each condition.

SMILES: Cn1c(=O)[nH]c2ncn(C)c2c1=O [PX, paraxanthine]
- Resting Energy Expenditure (100 mg PX, 30 min, person one): 1,943 kcal/day
- Resting Energy Expenditure (100 mg PX, 30 min, person two): 1,690 kcal/day
- Resting Energy Expenditure (100 mg PX, 60 min, person one): 1,862 kcal/day
- Resting Energy Expenditure (100 mg PX, 60 min, person two): 1,809 kcal/day
- Resting Energy Expenditure (100 mg PX, 90 min, person one): 1,921 kcal/day
- Resting Energy Expenditure (100 mg PX, 90 min, person two): 1,899 kcal/day
- Resting Energy Expenditure (100 mg PX, 120 min, person one): 1,990 kcal/day
- Resting Energy Expenditure (100 mg PX, 120 min, person two): 1,787 kcal/day
- Resting Energy Expenditure (100 mg PX, 180 min, person one): 2,129 kcal/day
- Resting Energy Expenditure (100 mg PX, 180 min, person two): 1,796 kcal/day
- Resting Energy Expenditure MEAN (100 mg PX, Average of both): 1,883 kcal/day
- Resting Energy Expenditure MEAN (100 mg PX, person one): 1,969 kcal/day
- Resting Energy Expenditure MEAN (100 mg PX, person two): 1,796 kcal/day
- Resting Energy Expenditure (200 mg PX, 30 min, person one): 2,007 kcal/day
- Resting Energy Expenditure (200 mg PX, 30 min, person two): 1,703 kcal/day
- Resting Energy Expenditure (200 mg PX, 60 min, person one): 1,702 kcal/day
- Resting Energy Expenditure (200 mg PX, 60 min, person two): 1,782 kcal/day
- Resting Energy Expenditure (200 mg PX, 90 min, person one): 2,048 kcal/day
- Resting Energy Expenditure (200 mg PX, 90 min, person two): 1,864 kcal/day
- Resting Energy Expenditure (200 mg PX, 120 min, person one): 2,221 kcal/day
- Resting Energy Expenditure (200 mg PX, 120 min, person two): 1,872 kcal/day
- Resting Energy Expenditure (200 mg PX, 180 min, person one): 2,067 kcal/day
- Resting Energy Expenditure (200 mg PX, 180 min, person two): 1,853 kcal/day
- Resting Energy Expenditure MEAN (200 mg PX, Average of both): 1,912 kcal/day
- Resting Energy Expenditure MEAN (200 mg PX, person one): 2,009 kcal/day
- Resting Energy Expenditure MEAN (200 mg PX, person two): 1,815 kcal/day
- Resting Energy Expenditure (300 mg PX, 30 min, person one): 2,267 kcal/day
- Resting Energy Expenditure (300 mg PX, 30 min, person two): 1,840 kcal/day
- Resting Energy Expenditure (300 mg PX, 60 min, person one): 2,354 kcal/day
- Resting Energy Expenditure (300 mg PX, 60 min, person two): 1,749 kcal/day
- Resting Energy Expenditure (300 mg PX, 90 min, person one): 2,312 kcal/day
- Resting Energy Expenditure (300 mg PX, 90 min, person two): 1,769 kcal/day
- Resting Energy Expenditure (300 mg PX, 120 min, person one): 2,436 kcal/day
- Resting Energy Expenditure (300 mg PX, 120 min, person two): 1,831 kcal/day
- Resting Energy Expenditure (300 mg PX, 180 min, person one): 2,402 kcal/day
- Resting Energy Expenditure (300 mg PX, 180 min, person two): 1,913 kcal/day
- Resting Energy Expenditure MEAN (300 mg PX, Average of both): 2,098 kcal/day
- Resting Energy Expenditure MEAN (300 mg PX, person one): 2,374 kcal/day
- Resting Energy Expenditure MEAN (300 mg PX, person two): 1,822 kcal/day
